Results as given in US8349827B2, “Substituted dipyrido-pyrimido-diazepine and benzo-pyrido-pyrimido compounds” (ArQule, Inc., priority 2009, dated 2013).

Key:
[1] = system: PC-3; assay: MTS assay, PC-3 cells; assay type: cell-based; details: Homo sapiens, 72 hours
Description: (§1) Cells were maintained at 37° C., 5% CO2 in DMEM media supplemented with 1% fetal bovine serum, penicillin/streptomycin and fungizone (Invitrogen). Cells were seeded into 96-well tissue culture plates at 3000 per well and cultured at 37° C. for 18 hours. Test compounds were dissolved and diluted to 300× in DMSO then diluted 1:40 in DMEM. Cells were incubated with test compounds for 72 hours followed by incubation with tetrazolium compound (3-(4,5-dimethylthiazol-2-yl)-5-(3-carboxymethoxyphenyl)-2-(4-sulfophenyl)-2H-tetrazolium, inner salt; MTS) and the electron coupling reagent, phenazine methosulfate (PMS) for 4 hours. […] The ability of compounds to inhibit cell growth in this assay is correlated with the reduction of dehydrogenase enzyme activity found in metabolically active cells. The measurement of the absorbance of the formazan was assessed using an ENVISION™ (Perkin Elmer) microplate reader at 492 nm. The calculated IC50 value is the concentration of the test compound that causes a 50% decrease in the absorbance.

[2] = target: ABL T315I (Homo sapiens, UniProt P00519, T315I); assay: ABL Kinase Activity Assay (Elisa), ABL T315I; assay type: biochemical; details: ATP 100 μM, read-out: Abl(T315I) Enzymetic assay (Elisa) % inhibition
Description: (§2) ABL Kinase Activity Assay
(§3) The disclosed compounds were assayed for their ability to inhibit the activity of ABL kinase. Nunc Maxisorb plates were coated with streptavidin by overnight incubation with 100 μL per well of 1 μg/ml streptavidin in DPBS. Prior to the experiment, the plates were washed with TBST (3×200 μL) and blocked for at least 3 hours by adding 150 μL of 5% BSA/TBST. The plates were washed with TBST (3×200 μL/well) and left dry immediately before the capture step.
(§4) The disclosed test compounds and controls (Gleevec) were prepared using the following assay buffer@10× desired final concentration (50 mM Tris pH 7.0, 0.02 mg/ml BSA, 10 mM MgCl2, 0.1 mM Na3VO4, 1 mM EGTA, 0.01% NP-40, 1 mM DTT in 10% glycerol/water). In a reaction plate, 5 μl test article (or control) and 30 μl ABL or ABL T315I (0.089 nM final concentration, in the above buffer) were added rapidly. The plate was incubated for 20 minutes. To the reaction plate was added ATP (100 μM final concentration) and AblTide (128 nM final concentration) in a volume of 15 μl. The plate was incubated at room temperature for one hour.
(§5) From the reaction plate, 40 μl was transferred to the streptavidin coated plate. The capture plate was incubated at room temperature for 30 minutes, then washed 3× with TBST. To the capture plate was added 100 μL/well of cell signaling anti-phospho tyrosine at a dilution of 1:3000 in 2% BSA/TBST. The plate was incubated for two hours at room temperature then washed 3× with TBST. To the capture plate was added 100 μL/well of alkaline phosphatase tagged goat anti mouse antibody at a dilution of 1:4000 in 2% BSA/TBST. The plate was incubated for one hour at room temperature then washed 3× with TBST.
(§6) The fluorescent readout was initiated by the addition of 100 μl/well of Attophos reagent (6 mg/10 mL). The reading was done on the Perkin Elmer Envision system.

[3] = system: PACA-2; assay: MTS assay, PACA-2 cells; assay type: cell-based; details: 72 hours
Description: as §1

[4] = system: NCI-H1299; assay: MTS assay, NCI-H1299 cells; assay type: cell-based; details: Homo sapiens, 72 hours
Description: as §1

[5] = system: MDA-MB-231; assay: MTS assay, MDA-MB-231 cells; assay type: cell-based; details: Homo sapiens, 72 hours
Description: as §1

[6] = system: DLD-1; assay: MTS assay, DLD-1 cells; assay type: cell-based; details: Homo sapiens, 72 hours
Description: as §1

[7] = system: KATO III; assay: MTS assay, KATO III cells; assay type: cell-based; details: Homo sapiens, 72 hours
Description: as §1

[8] = target: ABL (Homo sapiens, UniProt P00519); assay: ABL Kinase Activity Assay (Elisa), ABL; assay type: biochemical; details: ATP 100 μM, read-out: Abl Enzymetic assay (Elisa) % inhibition
Description: as §2, §3, §4, §5, §6

| SMILES | inhibition at 10 µM [1] [%] | inhibition at 10 µM [2] [%] | inhibition at 10 µM [3] [%] | inhibition at 10 µM [4] [%] | inhibition at 10 µM [5] [%] | inhibition at 10 µM [6] [%] | inhibition at 10 µM [7] [%] | inhibition at 10 µM [8] [%] |
| --- | --- | --- | --- | --- | --- | --- | --- | --- |
| CCCC(C)Nc1ncc2c(n1)-c1cccnc1Nc1cnccc1-2 (stereo not shown) [Example 5, N-(1-methylbutyl)-9H-dipyrido[2,3-b:4′,3′-f]pyrimido[4,5-d]azepin-2-amine] | < 50 | 80 to 100 | < 50 | < 50 | < 50 | < 50 | 50 to 79 | 80 to 100 |
| CCCCNc1ncc2c(n1)-c1cccnc1Nc1cnccc1-2 [Example 7, N-butyl-9H-dipyrido[2,3-b:4′,3′-f]pyrimido[4,5-d]azepin-2-amine] | < 50 | 80 to 100 | < 50 | < 50 | 50 to 79 | < 50 | 50 to 79 | 80 to 100 |
| Clc1ccccc1CNc1ncc2c(n1)-c1cccnc1Nc1cnccc1-2 [Example 8, N-(2-chlorobenzyl)-9H-dipyrido[2,3-b:4′,3′-f]pyrimido[4,5-d]azepin-2-amine] | 80 to 100 | 80 to 100 | 80 to 100 | 80 to 100 | 80 to 100 | 80 to 100 | 80 to 100 | 50 to 79 |
| Fc1ccc(CNc2ncc3c(n2)-c2cccnc2Nc2cnccc2-3)cc1 [Example 11, N-(4-fluorobenzyl)-9H-dipyrido[2,3-b:4′,3′-f]pyrimido[4,5-d]azepin-2-amine] | 80 to 100 | 80 to 100 | 80 to 100 | 80 to 100 | 80 to 100 | 80 to 100 | 80 to 100 | 80 to 100 |
| Clc1ccc(CNc2ncc3c(n2)-c2cccnc2Nc2cnccc2-3)cc1 [Example 13, N-(4-chlorobenzyl)-9H-dipyrido[2,3-b:4′,3′-f]pyrimido[4,5-d]azepin-2-amine] | < 50 | 80 to 100 | < 50 | 50 to 79 | < 50 | 50 to 79 | 50 to 79 | 50 to 79 |
| COc1ccc(CCNc2ncc3c(n2)-c2cccnc2Nc2cnccc2-3)cc1OC [Example 14, N-[2-(3,4-dimethoxyphenyl)ethyl]-9H-dipyrido[2,3-b:4′,3′-f]pyrimido[4,5-d]azepin-2-amine] | < 50 | 80 to 100 | < 50 | < 50 | < 50 | < 50 | < 50 | 80 to 100 |
| Cc1ccccc1CCNc1ncc2c(n1)-c1cccnc1Nc1cnccc1-2 [Example 15, N-[2-(2-methylphenyl)ethyl]-9H-dipyrido[2,3-b:4′,3′-f]pyrimido[4,5-d]azepin-2-amine] | < 50 | 80 to 100 | < 50 | < 50 | < 50 | < 50 | 50 to 79 | 80 to 100 |
| FC(F)(F)c1ccc(CNc2ncc3c(n2)-c2cccnc2Nc2cnccc2-3)cc1 [Example 21, N-[4-(trifluoromethyl)benzyl]-9H-dipyrido[2,3-b:4′,3′-f]pyrimido[4,5-d]azepin-2-amine] | 80 to 100 | < 50 | 80 to 100 | 80 to 100 | 80 to 100 | 80 to 100 | 80 to 100 | < 50 |
| COc1ccccc1CNc1ncc2c(n1)-c1cccnc1Nc1cnccc1-2 [Example 22, N-(2-methoxybenzyl)-9H-dipyrido[2,3-b:4′,3′-f]pyrimido[4,5-d]azepin-2-amine] | 50 to 79 | < 50 | < 50 | 50 to 79 | 80 to 100 | 50 to 79 | < 50 | < 50 |
| CCCN1CCC(Nc2ncc3c(n2)-c2cccnc2Nc2cnccc2-3)CC1 [Example 23, N-(1-propylpiperidin-4-yl)-9H-dipyrido[2,3-b:4′,3′-f]pyrimido[4,5-d]azepin-2-amine] | 80 to 100 | < 50 | 80 to 100 | 80 to 100 | 80 to 100 | 80 to 100 | 80 to 100 | 50 to 79 |
| COc1cccc(CCNc2ncc3c(n2)-c2cccnc2Nc2cnccc2-3)c1 [Example 24, N-[2-(3-methoxyphenyl)ethyl]-9H-dipyrido[2,3-b:4′,3′-f]pyrimido[4,5-d]azepin-2-amine] | < 50 | 80 to 100 | < 50 | < 50 | < 50 | < 50 | 50 to 79 | 80 to 100 |
| Fc1cccc(CCNc2ncc3c(n2)-c2cccnc2Nc2cnccc2-3)c1 [Example 25, N-[2-(3-fluorophenyl)ethyl]-9H-dipyrido[2,3-b:4′,3′-f]pyrimido[4,5-d]azepin-2-amine] | 80 to 100 | 80 to 100 | 80 to 100 | 80 to 100 | 80 to 100 | 80 to 100 | 80 to 100 | 50 to 79 |
| c1ccc(OCCNc2ncc3c(n2)-c2cccnc2Nc2cnccc2-3)cc1 [Example 26, N-(2-phenoxyethyl)-9H-dipyrido[2,3-b:4′,3′-f]pyrimido[4,5-d]azepin-2-amine] | < 50 | 80 to 100 | < 50 | < 50 | < 50 | < 50 | 50 to 79 | 80 to 100 |
| O[C@H]1CC[C@H](Nc2ncc3c(n2)-c2cccnc2Nc2cnccc2-3)CC1 [Example 27, trans-4-(9H-dipyrido[2,3-b:4′,3′-f]pyrimido[4,5-d]azepin-2-ylamino)cyclohexanol] | 50 to 79 | 80 to 100 | < 50 | < 50 | 50 to 79 | < 50 | 80 to 100 | 80 to 100 |
| Fc1ccc(CNc2ncc3c(n2)-c2cccnc2Nc2cnccc2-3)cc1F [Example 33, N-(3,4-difluorobenzyl)-9H-dipyrido[2,3-b:4′,3′-f]pyrimido[4,5-d]azepin-2-amine] | 80 to 100 | 80 to 100 | 80 to 100 | 80 to 100 | 80 to 100 | 80 to 100 | 80 to 100 | 80 to 100 |
| c1ccc(-c2ccc(CNc3ncc4c(n3)-c3cccnc3Nc3cnccc3-4)cc2)cc1 [Example 34, N-(biphenyl-4-ylmethyl)-9H-dipyrido[2,3-b:4′,3′-f]pyrimido[4,5-d]azepin-2-amine] | 80 to 100 | 80 to 100 | 80 to 100 | 80 to 100 | 80 to 100 | 80 to 100 | 80 to 100 | 80 to 100 |
| c1cnc2c(c1)-c1nc(NC3CCCCC3)ncc1-c1ccncc1N2 [Example 35, N-cyclohexyl-9H-dipyrido[2,3-b:4′,3′-f]pyrimido[4,5-d]azepin-2-amine] | < 50 | 80 to 100 | < 50 | 50 to 79 | < 50 | < 50 | 50 to 79 | 80 to 100 |
